Test results from paper PMC2364081, “Antagonists of retinoic acid receptors (RARs) are potent growth inhibitors of prostate carcinoma cells” (British Journal of Cancer, 2001).
pIC50, pKd: −log10 of the molar value.

Columns and labels:
HL60 cells [1] = assay: Clonal growth of single serum-free grown HL60 cells in microtitre wells; assay type: cell-based, human
Source text: (§1) Prostate cancer is one of the most common cancers in European and American males and has a high mortality rate (Landis et al, 1998; Rosenthal, 1998). Early disease is managed conservatively in Europe although in selected patients surgery is curative. In advanced disease, androgen ablation can produce symptomatic improvement, but the tumour often re-emerges in an androgen- independent and incurable form. One proposed treatment for androgen-independent prostate carcinoma is differentiation ther- apy, in which agents such as all-trans-retinoic acid (ATRA), 9-cis- retinoic acid and 1, 25-dihydroxyvitamin D3 (D3 ) are used to induce growth arrest, differentiation and sometimes apoptosis of the tumour cells (Liang et al, 1999; de Vos et al, 1997; Skowronski et al, 1994; Hedlund et al, 1997). ATRA and synthetic analogues exert their biological effects by binding to two families of retinoid receptors, […]. These are ligand-dependent transcription factors of the steroid/thyroid hormone nuclear receptor superfamily (Chambon 1994; Boehm et al, 1995). Activated RARs bind to retinoic acid-responsive elements (RAREs) in the promoters of genes and thus regulate gene expression. They also antagonize the activity of the tran- scription factor AP1 and thereby down-regulate the expression of some AP1-activated genes (Nagpal et al, 1995). One approach to unravelling the contributions of RAR sub-types to these actions has been the development of synthetic retinoids with selective activities at individual RARs and RXRs. For example, the diaryl- acetylenic retinoids allow separation of transactivation and AP1 antagonism functions at RAR (Nagpal et al, 1995). Recently, compounds that are selective for particular RAR sub-types have been synthesized: these include both agonists and antagonists (Chandraratna, 1995; Teng et al, 1999; Johnson et al, 1999). The functional selectivity of these compounds may open the way to achieving differentiation or apoptosis of tumour cells with minimal systemic side effects (Chandraratna, 1995). Cell lines that are commonly used in the evaluation of investiga- tional agents for prostate cancer include LNCaP, DU-145 and PC- 3. […] These lines are relatively insensitive to growth inhibition and induction of apoptosis by ATRA and by synthetic agonists. […] Fenretinide (4HPR) induces apoptosis of LNCaP and of PC-3 cells at 1-5 M and 25 µM, respectively (Pienta et al, 1993; Heish and Wu, 1997). Pfahl and colleagues examined the growth inhibitory effects of a panel of receptor-selective retinoids against DU145 and PC-3 cells and achieved complete growth inhibition and induction of apoptosis between 1 M and 10 M (Lu et al, 1999). […] Antagonists of retinoic acid receptors (RARs) are potent growth inhibitors of prostate carcinoma cells LA Hammond1 , CH Van Krinks2 , J Durham2 , SE Tomkins2 , RD Burnett3 , EL Jones1 , RAS Chandraratna3 and G Brown2 Divisions of 1 Cancer Studies and of 2 Immunity and Infection, University of Birmingham Medical School, Edgbaston, Birmingham B15 2TT, UK and 3 Retinoid Research, Allergan Inc., Irvine, California, USA Summary Novel synthetic antagonists of retinoic acid receptors (RARs) have been developed. To avoid interference by serum retinoids when testing these compounds, we established serum-free grown sub-lines (>3 years) of the prostate carcinoma lines LNCaP, PC3 and DU145. […] A component(s) of serum and of LNCaP-conditioned medium diminishes the activity of antagonists: this factor is not the most likely candidates IGF-1 and EGF. In vitro studies of RAR antagonists together with data from RAR-null mice lead to the hypothesis that RAR-regulated gene transcription is necessary for the survival and maintenance of prostate epithelium. […]

RARα = target: T1, RARα (Homo sapiens, UniProt P10276); assay: Binding to baculovirus-expressed RARα; design: made in house; conditions: baculovirus-expressed receptor
T1 sequence (P10276 1-462): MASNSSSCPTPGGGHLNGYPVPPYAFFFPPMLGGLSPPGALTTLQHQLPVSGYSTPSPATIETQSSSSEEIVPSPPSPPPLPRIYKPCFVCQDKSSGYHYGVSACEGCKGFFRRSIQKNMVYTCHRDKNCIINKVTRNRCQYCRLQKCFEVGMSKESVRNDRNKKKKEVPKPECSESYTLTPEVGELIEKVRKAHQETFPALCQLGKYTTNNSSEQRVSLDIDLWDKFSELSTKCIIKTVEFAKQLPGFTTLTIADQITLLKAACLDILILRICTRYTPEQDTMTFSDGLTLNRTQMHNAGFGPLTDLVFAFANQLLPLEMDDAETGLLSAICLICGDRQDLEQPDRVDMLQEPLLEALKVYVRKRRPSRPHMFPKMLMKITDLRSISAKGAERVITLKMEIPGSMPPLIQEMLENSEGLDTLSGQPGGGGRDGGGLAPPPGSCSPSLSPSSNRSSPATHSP
Source text: as §1

PC3 ITS+ cells = assay: Plate colony formation assay, serum-free (ITS+)-grown PC3; assay type: cell-based, human; conditions: 14 days
Source text: (§2) Prostate cancer is one of the most common cancers in European and American males and has a high mortality rate (Landis et al, 1998; Rosenthal, 1998). Early disease is managed conservatively in Europe although in selected patients surgery is curative. In advanced disease, androgen ablation can produce symptomatic improvement, but the tumour often re-emerges in an androgen- independent and incurable form. One proposed treatment for androgen-independent prostate carcinoma is differentiation ther- apy, in which agents such as all-trans-retinoic acid (ATRA), 9-cis- retinoic acid and 1, 25-dihydroxyvitamin D3 (D3 ) are used to induce growth arrest, differentiation and sometimes apoptosis of the tumour cells (Liang et al, 1999; de Vos et al, 1997; Skowronski et al, 1994; Hedlund et al, 1997). ATRA and synthetic analogues exert their biological effects by binding to two families of retinoid receptors, the RARs (RAR, RAR and RAR) and the RXRs (RXR, RXR and RXR). These are ligand-dependent transcription factors of the steroid/thyroid hormone nuclear receptor superfamily (Chambon 1994; Boehm et al, 1995). Activated RARs bind to retinoic acid-responsive elements (RAREs) in the promoters of genes and thus regulate gene expression. They also antagonize the activity of the tran- scription factor AP1 and thereby down-regulate the expression of some AP1-activated genes (Nagpal et al, 1995). One approach to unravelling the contributions of RAR sub-types to these actions has been the development of synthetic retinoids with selective activities at individual RARs and RXRs. For example, the diaryl- acetylenic retinoids allow separation of transactivation and AP1 antagonism functions at RAR (Nagpal et al, 1995). Recently, compounds that are selective for particular RAR sub-types have been synthesized: these include both agonists and antagonists (Chandraratna, 1995; Teng et al, 1999; Johnson et al, 1999). The functional selectivity of these compounds may open the way to achieving differentiation or apoptosis of tumour cells with minimal systemic side effects (Chandraratna, 1995). […]

HL60 cells [2] = assay: ATRA-induced differentiation of HL60 cells to neutrophils (nitroblue tetrazolium reduction); assay type: cell-based, human; conditions: antagonist at 100 nM added with 100 nM ATRA
Source text: as §2, with “1995).” for “1995). One approach to unravelling the contributions of RAR sub-types to these actions has been the development of synthetic retinoids with selective activities at individual RARs and RXRs. For example, the diaryl- acetylenic retinoids allow separation of transactivation and AP1 antagonism functions at RAR (Nagpal et al, 1995). Recently, compounds that are selective for particular RAR sub-types have been synthesized: these include both agonists and antagonists (Chandraratna, 1995; Teng et al, 1999; Johnson et al, 1999). The functional selectivity of these compounds may open the way to achieving differentiation or apoptosis of tumour cells with minimal systemic side effects (Chandraratna, 1995).”

Compound: CCc1ccc(C2=CC(C)(C)Sc3ccc(C#Cc4ccc(C(=O)O)cc4)cc32)cc1 [AGN194310]
- effect on clonal growth of HL60 cells (HL60 cells [1]): did not adversely affect
- viability of the single cells (HL60 cells [1]; 0.1 µM): > 95%
- number of viable cells at day 4 (HL60 cells [1]; 100 nM, control 18): 17
- cloning efficiency (HL60 cells [1]; 100 nM, same as untreated): 90-93%
- pKd (RARα): 8.52
- pIC50 (PC3 ITS+ cells): 7.74
- percentage of mature cells (HL60 cells [2]): 5%
